{"source": "paper PMC2918917", "about": "(New journal of chemistry = Nouveau journal de chimie, 2010)", "key": {"cultured cells": {"system": "cultured cells", "details": "cited from earlier work"}, "[1]": {"system": "cultured mouse mammary cells", "details": "cited from earlier work"}, "hDcp2": {"biological_target": "hDcp2 (Homo sapiens, UniProt Q8IU60)", "experiment": "In vitro decapping of capped mRNA by hDcp2", "format": "biochemical", "details": "mRNA capped with D1 plus D2 mixture; preliminary results, unpublished work [21]"}, "[2]": {"system": "rabbit reticulocyte lysate (RRL) system", "details": "cited from earlier work"}, "[3]": {"system": "microRNA-mediated translational repression", "details": "cited from earlier work; for enhancement of microRNA-mediated translational repression: Drosophila melanogaster embryos extract"}, "human DcpS": {"biological_target": "T1, human DcpS (Homo sapiens, UniProt Q96C86)", "T1 sequence (Q96C86 1-337)": "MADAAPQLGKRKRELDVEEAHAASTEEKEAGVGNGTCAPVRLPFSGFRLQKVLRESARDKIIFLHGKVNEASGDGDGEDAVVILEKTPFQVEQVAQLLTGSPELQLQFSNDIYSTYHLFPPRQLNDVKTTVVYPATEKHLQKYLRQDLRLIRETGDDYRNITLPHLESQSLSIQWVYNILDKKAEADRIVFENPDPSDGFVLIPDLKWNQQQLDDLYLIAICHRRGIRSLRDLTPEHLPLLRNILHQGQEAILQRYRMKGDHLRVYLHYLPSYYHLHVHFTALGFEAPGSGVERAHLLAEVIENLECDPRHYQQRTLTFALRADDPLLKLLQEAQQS", "experiment": "hDcpS assay: enzymatic hydrolysis of cap analogs monitored by RP HPLC", "details": "positive control; cleavage to m^7GMP and GDP; amount of DcpS adjusted"}}, "note": "Where two headings read alike, the source gives them in different places."}
{"molecule": "m2^7,3'-OGppCH2pG", "values": [{"measurement": "half-life of capped mRNA transfected into cultured cells", "setting": "cultured cells", "value": "prolonged half-life"}, {"measurement": "translation of capped mRNA versus regular ARCA", "setting": "cultured cells", "value": "translated even less efficiently"}]}
{"molecule": "CO[C@@H]1[C@H](O)[C@@H](COP(=O)(O)OP(O)(=S)OP(=O)(O)OC[C@H]2O[C@@H](n3cnc4c(=O)[nH]c(N)nc43)[C@H](O)[C@@H]2O)O[C@H]1n1c[n+](C)c2c(=O)[nH]c(N)nc21", "note": "(stereo partly drawn) [m2^7,2’-OGppSpG (D2)]", "values": [{"measurement": "translation efficiency relative to m2^7,2’-OGpppG-capped mRNA", "setting": "[1]", "value": 2.4}]}
{"molecule": "P1-(7,2'-O-dimethylguanosin-5'-y l ) P4-guanosin-5'-yl (3-thiotetraphosphate) [compound 2]", "values": [{"measurement": "susceptibility of capped mRNA to in vitro decapping by hDcp2", "setting": "hDcp2", "value": "resistant"}]}
{"molecule": "COC1C(COP(=O)([O-])OP(=O)(O)OP(=O)(O)OP(=O)(O)OP(=O)(O)OCC2OC(n3cnc4c(=O)[nH]c(N)nc43)C(O)C2O)OC(n2c[n+](C)c3c(=O)[nH]c(N)nc32)C1O", "note": "(stereo not drawn) [m2^7,3'-OGp5G]", "values": [{"measurement": "translation efficiency of mRNA capped with pentaphosphate analog", "setting": "[2]", "value": "not effective in promoting translation"}]}
{"molecule": "C[n+]1cn(C2OC(COP(=O)([O-])OP(=O)(O)OP(=O)(O)OP(=O)(O)OP(=O)(O)OP(=O)(O)OCC3OC(n4cnc5c(=O)[nH]c(N)nc54)C(O)C3O)C(O)C2O)c2nc(N)[nH]c(=O)c21", "note": "(stereo not drawn) [m^7Gp6G]", "values": [{"measurement": "enhancement of microRNA-mediated translational repression", "setting": "[3]", "value": "~ 2 fold"}, {"measurement": "effect on general cap-dependent translation", "setting": "[3]", "value": "neutral"}]}
{"molecule": "COC1C(O)C(COP(=O)(O)OP(=O)(O)OP(O)(=S)OCC2OC(n3cnc4c(=O)[nH]c(N)nc43)C(O)C2O)OC1n1c[n+](C)c2c(=O)[nH]c(N)nc21", "note": "(stereo not drawn) [m2^7,2’-OGpppSG (D2)]", "values": [{"measurement": "enhancement of microRNA-mediated translational repression", "setting": "[3]", "value": 2, "unit": "fold"}, {"measurement": "enhancement of microRNA-mediated translational repression", "setting": "[3]; listed as m2^7,2'-OGpppSG (D2)", "value": "~ 2 fold"}, {"measurement": "effect on general cap-dependent translation", "setting": "[3]", "value": "no change"}, {"measurement": "effect on general cap-dependent translation", "setting": "[3]; listed as m2^7,2'-OGpppSG (D2)", "value": "neutral"}]}
{"molecule": "Cn1c[n+]([C@@H]2O[C@H](COP(=O)(O)OP(=O)([O-])OP(=O)(O)OC[C@H]3O[C@@H](n4cnc5c(=O)[nH]c(N)nc54)[C@H](O)[C@@H]3O)[C@@H](O)[C@H]2O)c2nc(N)[nH]c(=O)c21", "note": "[m^7GpppG]", "values": [{"measurement": "time to complete cleavage by DcpS", "setting": "human DcpS", "value": "less than 15 min"}]}
